Measurements taken from patent US6608082B1, “Treatment of erectile dysfunction using isoquinoline compound melanocortin receptor ligands” (Lion Bioscience AG, priority 1998, dated 2003).
Where two headings read alike, the source gives them in different places.

Legend:
[1] = biological target: T1, MCR-1 (Homo sapiens, UniProt Q01726); assay: Melanocortin receptor binding assay, competition with 125I-HP 467, HEK 293 cells expressing hMCR-1; conditions: read-out: MC-1 IC50
T1 construct: expressed in transfected cells; host or cells: HEK 293
T1 sequence (Q01726 whole entry): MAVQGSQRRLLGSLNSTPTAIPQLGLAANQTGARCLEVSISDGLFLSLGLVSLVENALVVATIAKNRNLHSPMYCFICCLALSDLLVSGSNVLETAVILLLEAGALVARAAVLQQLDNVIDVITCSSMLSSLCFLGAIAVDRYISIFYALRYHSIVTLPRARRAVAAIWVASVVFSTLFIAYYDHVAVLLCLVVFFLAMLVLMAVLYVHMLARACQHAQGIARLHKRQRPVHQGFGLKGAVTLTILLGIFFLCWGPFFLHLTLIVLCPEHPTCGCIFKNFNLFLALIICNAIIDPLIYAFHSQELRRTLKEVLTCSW
Procedure, shortened: (§1)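 Intact-cell competition binding, 2.5 hr at 37 °C, in PBS/10% calf serum/1 mM CaCl2; hMCR-4 cells at 4×10^3 per tube, hMCR-1 cells at 2×10^4 per tube. Filtration on BSA/CaCl2-soaked GF/B, cold 50 mM Tris pH 7.4 washes, scintillation count.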

[2] = biological target: T2, MCR-4 (Homo sapiens, UniProt P32245); assay: Melanocortin receptor binding assay, competition with 125I-HP 467, HEK 293 cells expressing hMCR-4; conditions: read-out: MC-4 IC50
T2 construct: expressed in transfected cells; host or cells: HEK 293
T2 sequence (P32245 whole entry): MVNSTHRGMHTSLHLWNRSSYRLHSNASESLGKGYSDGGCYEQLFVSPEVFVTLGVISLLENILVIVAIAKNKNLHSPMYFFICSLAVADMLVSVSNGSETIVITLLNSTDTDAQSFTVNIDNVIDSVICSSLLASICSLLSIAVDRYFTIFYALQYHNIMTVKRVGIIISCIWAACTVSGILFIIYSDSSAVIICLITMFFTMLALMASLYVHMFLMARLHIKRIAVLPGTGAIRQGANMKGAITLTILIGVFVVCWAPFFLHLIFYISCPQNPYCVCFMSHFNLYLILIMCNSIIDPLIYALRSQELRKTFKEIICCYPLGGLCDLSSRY
Procedure, shortened: as §1

[3] = TRG 2408 and TRG 2409 libraries, inhibition of 125I-HP 467 binding
[4] = competition with 125I-HP 467, HEK 293 cells expressing MCR-1
[5] = competition with 125I-HP 467, HEK 293 cells expressing MCR-4

IC50 [1, 3]	IC50 [2, 3]	IC50 [1, 4]	IC50 [2, 5]	Structure (SMILES)
1.94 µM	5.87 µM	–	–	NC[C@H](CCCN1Cc2ccccc2C(CNC2CCCCC2)C1c1ccc(Cl)cc1Cl)NCCc1ccccc1 (stereo partly drawn) [TRG 2408-72]
1.08 µM	4.05 µM	–	–	NCCNC(CN)CCCN1Cc2ccccc2C(CNC2CCCCC2)C1c1ccc(Cl)cc1Cl (stereo not drawn) [TRG 2408-73]
1.56 µM	4.28 µM	–	–	CNCCNC(CN)CCCN1Cc2ccccc2C(CNC2CCCCC2)C1c1ccc(Cl)cc1Cl (stereo not drawn) [TRG 2408-74]
2.18 µM	12.2 µM	–	–	CNC(CN)CCCN1Cc2ccccc2C(CNC2CCCCC2)C1c1ccc(-c2ccccc2)cc1 (stereo not drawn) [TRG 2408-80]
4.41 µM	18 µM	–	–	NCC(N)CCCN1Cc2ccccc2C(CNC2CCCCC2)C1c1ccc(-c2ccccc2)cc1 (stereo not drawn) [TRG 2408-81]
10.2 µM	16.4 µM	–	–	NCC(CCCN1Cc2ccccc2C(CNC2CCCCC2)C1c1ccc(-c2ccccc2)cc1)NCCc1ccccc1 (stereo not drawn) [TRG 2408-82]
1.77 µM	11.1 µM	–	–	NCCNC(CN)CCCN1Cc2ccccc2C(CNC2CCCCC2)C1c1ccc(-c2ccccc2)cc1 (stereo not drawn) [TRG 2408-83]
2.5 µM	15.4 µM	–	–	CNCCNC(CN)CCCN1Cc2ccccc2C(CNC2CCCCC2)C1c1ccc(-c2ccccc2)cc1 (stereo not drawn) [TRG 2408-84]
1.82 µM	21.7 µM	–	–	CCNc1ccc(C2C(CNCc3ccccc3OC)c3ccccc3CN2CCC(CN)NCCN)cc1 (stereo not drawn) [TRG 2408-89]
5.9 µM	25.2 µM	–	–	CCNc1ccc(C2C(CNC3CCCCC3)c3ccccc3CN2CC[C@@H](CN)NC)cc1 (stereo partly drawn) [TRG 2408-90]
9.94 µM	28.1 µM	–	–	CCNc1ccc(C2C(CNC3CCCCC3)c3ccccc3CN2CCC(N)CN)cc1 (stereo not drawn) [TRG 2408-91]
4.51 µM	1.54 µM	–	–	CCNc1ccc(C2C(CNC3CCCCC3)c3ccccc3CN2CCC(CN)NCCc2ccccc2)cc1 (stereo not drawn) [TRG 2408-92]
4.01 µM	16.3 µM	–	–	CCNc1ccc(C2C(CNC3CCCCC3)c3ccccc3CN2CCC(CN)NCCN)cc1 (stereo not drawn) [TRG 2408-93]
3.89 µM	27.1 µM	–	–	CCNc1ccc(C2C(CNC3CCCCC3)c3ccccc3CN2CCC(CN)NCCNC)cc1 (stereo not drawn) [TRG 2408-94]
6.98 µM	6.1 µM	–	–	CNC(CN)CCN1Cc2ccccc2C(CNC2CCCCC2)C1c1ccc(Cl)cc1Cl (stereo not drawn) [TRG 2408-100]
7.89 µM	5.68 µM	–	–	NCC(N)CCN1Cc2ccccc2C(CNC2CCCCC2)C1c1ccc(Cl)cc1Cl (stereo not drawn) [TRG 2408-101]
5.41 µM	8.8 µM	–	–	NCCNC(CN)CCN1Cc2ccccc2C(CNC2CCCCC2)C1c1ccc(Cl)cc1Cl (stereo not drawn) [TRG 2408-103]
5.65 µM	9.06 µM	–	–	CNCCNC(CN)CCN1Cc2ccccc2C(CNC2CCCCC2)C1c1ccc(Cl)cc1Cl (stereo not drawn) [TRG 2408-104]
5.37 µM	9.01 µM	–	–	CNC(CN)CCN1Cc2ccccc2C(CNC2CCCCC2)C1c1ccc(-c2ccccc2)cc1 (stereo not drawn) [TRG 2408-110]
8.79 µM	10.4 µM	–	–	NCC(CCN1Cc2ccccc2C(CNC2CCCCC2)C1c1ccc(-c2ccccc2)cc1)NCCc1ccccc1 (stereo not drawn) [TRG 2408-112]
3.78 µM	12.7 µM	–	–	NCCNC(CN)CCN1Cc2ccccc2C(CNC2CCCCC2)C1c1ccc(-c2ccccc2)cc1 (stereo not drawn) [TRG 2408-113]
–	–	1.15 µM	17.4 µM	CNC(CN)CCCCN1Cc2ccccc2C(CNC2CCCCC2)C1c1ccc(NCc2ccccc2)cc1 (stereo not drawn) [TRG 2409-13]
–	–	1.65 µM	16.2 µM	CNC(CN)CCCCN1Cc2ccccc2C(CNC2CCCCC2)C1c1ccc(NCC2CCCCC2)cc1 (stereo not drawn) [TRG 2409-15]
–	–	0.95 µM	21 µM	CNC(CN)CCCCN1Cc2ccccc2C(CNC2CCCCC2)C1c1ccc(NCC(C)C)cc1 (stereo not drawn) [TRG 2409-16]
–	–	2.72 µM	27.5 µM	CNC(CN)CCCCN1Cc2ccccc2C(CNC2CCCCC2)C1c1ccc(NCCOC)cc1 (stereo not drawn) [TRG 2409-17]
–	–	7.51 µM	16.9 µM	CNC(CN)CCCCN1Cc2ccccc2C(CNC2CCCCC2)C1c1ccc(NCc2ccc(OC)cc2)cc1 (stereo not drawn) [TRG 2409-18]
–	–	2.08 µM	15.5 µM	CNC(CN)CCCCN1Cc2ccccc2C(CNC2CCCCC2)C1c1ccc(NCCc2ccccc2)cc1 (stereo not drawn) [TRG 2409-19]
–	–	0.88 µM	19.8 µM	CCCNc1ccc(C2C(CNC3CCCCC3)c3ccccc3CN2CCCCC(CN)NC)cc1 (stereo not drawn) [TRG 2409-20]
–	–	2.63 µM	14.7 µM	CNC(CN)CCCCN1Cc2ccccc2C(CNC2CCCCC2)C1c1ccc(NCCc2ccc(OC)cc2)cc1 (stereo not drawn) [TRG 2409-21]
–	–	1.53 µM	12.3 µM	CNC(CN)CCCCN1Cc2ccccc2C(CNC2CCCCC2)C1c1ccc(NCCC2CC3CCC2C3)cc1 (stereo not drawn) [TRG 2409-22]
